Assays:
[1] = Selectivity index, ratio of CC50 for cytotoxicity against HEK293T cells to IC50 of antiviral activity against HIV1; assay type: toxicity, cell-based; settings: human, read-out: Ratio CC50/IC50
[2] = biological target: Human immunodeficiency virus type 1 protease (Human immunodeficiency virus 1, UniProt Q72874); assay: Inhibition of wild type HIV1 protease using Arg-Glu (EDANS)-Ser-Gln-Asn-Tyr-Pro-Ile-Val-Gln-Lys(DABCYL)-Arg as substrate preincubated for 20 to 30 mins followed by substrate addition and measured for 10 mins by FRET assay
[3] = Cytotoxicity against HEK293T cells assessed as reduction in cell viability incubated for 24 hrs by CCK8 assay; assay type: cell-based, HEK-293T; settings: human
[4] = tested on: Human immunodeficiency virus 1; assay: Antiviral activity against HIV1; assay type: functional, organism-based
[5] = tested on: Human immunodeficiency virus 1; assay: (§1) Antiviral activity against HIV1 Env-deficient VSV-G pseudotyped virus infected in human SUP-T1 cells infected with supernatant of compound treated virus-producing 293T cells assessed as inhibition of late stage viral production at 10 uM treated for 48 hrs with virus-producing 293T cells followed by SUP-T1 cells infection for 48 hrs by single-round infection luciferase assay relative to control; assay type: functional; settings: Human immunodeficiency virus 1, SUP-T1, time 96 hrs
[6] = tested on: Human immunodeficiency virus 1; assay: Antiviral activity against HIV1 (NL4-3) Env-deficient VSV-G pseudotyped virus infected in human SUP-T1 cells assessed as inhibition of early stage viral production at 10 uM measured after 48 hrs by luciferase assay relative to control; assay type: functional; settings: Human immunodeficiency virus 1, NL4-3, SUP-T1
[7] = Resistance index, ratio of IC50 for DRV resistant HIV1 infected in human MT4 cells to IC50 for HIV1 NL4-3 infected in human MT4 cells; assay type: functional
[8] = tested on: Human immunodeficiency virus 1; assay: Antiviral activity against HIV1 subtype C isolate 11941; assay type: functional, organism-based
[9] = biological target: Human immunodeficiency virus type 1 protease (Human immunodeficiency virus 1) (UniProt Q72874); assay: Potency index, ratio of DRV Ki to test compound Ki for inhibition of wild type HIV1 protease using Arg-Glu (EDANS)-Ser-Gln-Asn-Tyr-Pro-Ile-Val-Gln-Lys(DABCYL)-Arg as substrate preincubated for 20 to 30 mins followed by substrate addition and measured for 10 mins by FRET assay; settings: time 30-40 min
[10] = tested on: Human immunodeficiency virus 1; assay: Antiviral activity against HIV1 subtype C isolate 11929; assay type: functional, organism-based; settings: Human immunodeficiency virus 1, subtype C isolate 11929
[11] = tested on: Human immunodeficiency virus 1; assay: Antiviral activity against HIV1 subtype C isolate 11928; assay type: functional, organism-based
[12] = tested on: Human immunodeficiency virus 1; assay: Antiviral activity against DRV resistant HIV1 infected in human MT4 cells assessed as reduction in viral replication by measuring reduction in p24 Gag production by chemiluminescent-EIA; assay type: functional, organism-based; settings: Human immunodeficiency virus 1, MT4
[13] = tested on: Human immunodeficiency virus 1; assay: Antiviral activity against HIV1 NL4-3 infected in human MT4 cells assessed as reduction in viral replication by measuring reduction in p24 Gag production by chemiluminescent-EIA; assay type: functional, organism-based; settings: Human immunodeficiency virus 1, NL4-3, MT4
[14] = tested on: Human immunodeficiency virus 1; assay: Antiviral activity against HIV1 subtype C isolate-plndie; assay type: functional, organism-based; settings: Human immunodeficiency virus 1, subtype C isolate-plndie
[15] = tested on: Human immunodeficiency virus 1; assay: as §1, with “100 nM” for “10 uM”; assay type: functional; settings: Human immunodeficiency virus 1, SUP-T1, time 96 hrs

SMILES	selectivity ratio [1]	Ki [2]	CC50 at 24 h [3]	IC50 [4]	inhibition at 10 µM [5]	further results
CC(C)CN(C[C@@H](O)[C@H](Cc1ccccc1)NC(=O)OC[C@@H]1CCCNC1)S(=O)(=O)c1ccc(C(F)(F)F)cc1	> 13000	1.73 nM	> 100000 nM	7.71 nM	–	–
COc1ccc(S(=O)(=O)N(CC(C)C)C[C@@H](O)[C@H](Cc2ccccc2)NC(=O)[C@@H]2CCCN(C)C2)cc1	> 556000	0.04 nM	> 100000 nM	0.18 nM	98%	inhibition at 10 µM [6]: 5%
COc1ccc(S(=O)(=O)N(CC(C)C)C[C@@H](O)[C@H](Cc2ccccc2)NC(=O)C2CCNCC2)cc1	> 40800	0.55 nM	> 100000 nM	2.45 nM	–	–
CC(C)CN(C[C@@H](O)[C@H](Cc1ccccc1)NC(=O)[C@H]1CCCNC1)S(=O)(=O)c1ccc(N)cc1	–	40.5 nM	–	181 nM	–	–
CC(C)CN(C[C@@H](O)[C@H](Cc1ccccc1)NC(=O)[C@@H]1CCCNC1)S(=O)(=O)c1ccc(C(F)(F)F)cc1	> 222000	0.1 nM	> 100000 nM	0.45 nM	–	–
CC(C)CN(C[C@@H](O)[C@H](Cc1ccccc1)NC(=O)[C@@H]1CCCN(C)C1)S(=O)(=O)c1ccc(C(F)(F)F)cc1	> 119000	0.19 nM	> 100000 nM	0.84 nM	88%	–
CC(C)CN(C[C@@H](O)[C@H](Cc1ccccc1)NC(=O)C1CCNCC1)S(=O)(=O)c1ccc(N)cc1	–	5.52 nM	–	24.6 nM	–	–
CC(C)CN(C[C@@H](O)[C@H](Cc1ccccc1)NC(=O)OC[C@@H]1CCCNC1)S(=O)(=O)c1ccc(N)cc1	> 78700	0.28 nM	> 100000 nM	1.27 nM	71%	–
COc1ccc(S(=O)(=O)N(CC(C)C)C[C@@H](O)[C@H](Cc2ccccc2)NC(=O)[C@@H]2CCCNC2)cc1	> 769000	0.029 nM	> 100000 nM	0.13 nM	99%	Ratio IC50 [7]: 1.8; EC50 [8]: 11800 nM; Ratio Ki [9]: 6; inhibition at 10 µM [6]: 3%; EC50 [10]: 14800 nM; EC50 [11]: 49400 nM; EC50 [12]: 900 nM; EC50 [13]: 500 nM; EC50 [14]: 26300 nM
COc1ccc(S(=O)(=O)N(CC(C)C)C[C@@H](O)[C@H](Cc2ccccc2)NC(=O)OC[C@H]2CCCNC2)cc1	> 74100	0.3 nM	> 100000 nM	1.35 nM	–	–
CC(C)CN(C[C@@H](O)[C@H](Cc1ccccc1)NC(=O)[C@@H]1CCCN(C)C1)S(=O)(=O)c1ccc(N)cc1	> 74100	0.3 nM	> 100000 nM	1.35 nM	83%	–
CC(C)CN(C[C@@H](O)[C@H](Cc1ccccc1)NC(=O)O[C@H]1CO[C@H]2OCC[C@H]21)S(=O)(=O)c1ccc(N)cc1	–	–	> 100000 nM	–	–	EC50 [8]: 910 nM; EC50 [10]: 3630 nM; EC50 [11]: 2010 nM; inhibition at 0.1 µM [15]: 100%; EC50 [12]: 240 nM; EC50 [13]: 3.9 nM; EC50 [14]: 1260 nM
CC(C)CN(C[C@@H](O)[C@H](Cc1ccccc1)NC(=O)[C@@H]1CCCCN1)S(=O)(=O)c1ccc(C(F)(F)F)cc1	–	4.61 nM	–	20.6 nM	–	–
CC(C)CN(C[C@@H](O)[C@H](Cc1ccccc1)NC(=O)OC[C@H]1CCCNC1)S(=O)(=O)c1ccc(C(F)(F)F)cc1	> 8580	2.61 nM	> 100000 nM	11.7 nM	–	–
COc1ccc(S(=O)(=O)N(CC(C)C)C[C@@H](O)[C@H](Cc2ccccc2)NC(=O)OC[C@@H]2CCCNC2)cc1	> 233000	0.1 nM	> 100000 nM	0.43 nM	94%	–
CC(C)CN(C[C@@H](O)[C@H](Cc1ccccc1)NC(=O)[C@@H]1CCCNC1)S(=O)(=O)c1ccc(N)cc1	> 82600	0.27 nM	> 100000 nM	1.21 nM	81%	–
CC(C)CN(C[C@@H](O)[C@H](Cc1ccccc1)NC(=O)OC[C@H]1CCCNC1)S(=O)(=O)c1ccc(N)cc1	> 22100	1.01 nM	> 100000 nM	4.53 nM	–	–
COc1ccc(S(=O)(=O)N(CC(C)C)C[C@@H](O)[C@H](Cc2ccccc2)NC(=O)[C@H]2CCCNC2)cc1	–	9.99 nM	–	44.6 nM	93%	–
COc1ccc(S(=O)(=O)N(CC(C)C)C[C@@H](O)[C@H](Cc2ccccc2)NC(=O)[C@@H]2CCCCN2)cc1	> 68500	0.33 nM	> 100000 nM	1.46 nM	79%	–
CC(C)CN(C[C@@H](O)[C@H](Cc1ccccc1)NC(=O)[C@H]1CCCNC1)S(=O)(=O)c1ccc(C(F)(F)F)cc1	–	43.9 nM	–	196 nM	–	–
CC(C)CN(C[C@@H](O)[C@H](Cc1ccccc1)NC(=O)C1CCNCC1)S(=O)(=O)c1ccc(C(F)(F)F)cc1	–	5.93 nM	–	26.5 nM	–	–
CC(C)CN(C[C@@H](O)[C@H](Cc1ccccc1)NC(=O)[C@@H]1CCCCN1)S(=O)(=O)c1ccc(N)cc1	> 11100	2.03 nM	> 100000 nM	9.04 nM	–	–

From ChEMBL document CHEMBL4837199, “Design and evaluation of novel piperidine HIV-1 protease inhibitors with potency against DRV-resistant variants” (Eur J Med Chem, 2021)
